Experimental data published in US20180117052A1, “COMBINATION THERAPIES FOR TREATING CANCERS” (Gilead Scienes, Inc., priority 2015, published 2018).

System: CD5+/CD19+ cells of PBMCs from primary chronic lymphocytic leukemia (CLL) patients
Experiment: Human CLL apoptosis assay (AnnexinV+ cells by flow cytometry)
Format: cell-based
Settings: no HS-5 co-culture
Procedure: Peripheral blood mononuclear cells (PBMCs) were isolated from primary chronic lymphocytic leukemia (CLL) patients and cultured for 3-5 hours in Lymphocyte Growth Medium (LGM, RPMI 1640, 1 mM Sodium Pyruvate, 10 mM HEPES, pH 7.4, 100 U/mL Penicillin/100 μg/mL Streptomycin, 55 μM β-Mercaptoethanl, 2 mM GlutaMAX, and 10% FBS) at 37° C. with 5% CO2. Cells were then centrifuged at room temperature for 10 minutes and resuspended in an appropriate volume of LGM for plating (maximum cell density=3.12×10^6/ml). Final assay wells were set up in U-bottom 96-well tissue culture plates with HS-5 co-culture (plates were coated with 3×10^4 HS-5 cells in 100 μl overnight at 37° C. prior to the assay) or no co-culture.
Cell suspensions (80 μL, 2.5×10^5-9.4×10^4) were added to the plate and incubated for 1 hour prior to stimulation with αIgM/αIgG (7.8 μg/well) and αCD40 (4 μg/well). Cells were incubated with compounds for about 66 hours at 37° C. After incubation, the cells were transferred to deeper plates and washed once with 500 μL of 1× PBS^+/+. Cells were resuspended in Invitrogen's aqua Live/Dead reagent according to manufacturer's directions and incubated 30 minutes on ice. Aqua Live/Dead was quenched with an equal volume of PBS^+/+ with 4% FBS (FACS buffer). Cells were centrifuged and labeled with αCD5-PE, αCD19-BV421 and AnnexinV-APC in a total volume of 85 μL and incubated 30 minutes on ice. After labeling, cells were rinsed twice in FACS buffer and then fixed with BD Fixation buffer for 30 minutes on ice. Cells were rinsed twice with FACS buffer and analyzed.
For the apoptosis analysis, flow cytometric sampling of 5000-20,000 total events were collected on a BD FACS Canto II instrument using a high throughput screen (HTS) autosampler for analysis of apoptosis. CD5^+/CD19^+ cells were identified and subsequently gated for AnnexinV^+/LiveDead and AnnexinV^+/LiveDead^+ populations.
Flow cytometric data were extracted to a flow cytometry standard (fcs) file. Average percentages of AnnexinV^+ cells were determined for the positive control and negative wells (no compound). The percentage of AnnexinV^+ cells represented the percentage or levels of apoptosis. Similar results were obtained for CLL cells with HS-5 co-culture.

## c1cn2cc(-c3ccc4cn[nH]c4c3)nc(Nc3ccc(N4CCOCC4)cc3)c2n1 [Compound A1, 6-(1H-indazol-6-yl)-N-(4-morpholinophenyl)imidazo[1,2-a]pyrazin-8-amine]
Sample 1, 30 nM Compound A1, 0 nM Compound B1
  Percentage of the AnnexinV^+ cells: 12%
Sample 1, 100 nM Compound A1, 0 nM Compound B1
  Percentage of the AnnexinV^+ cells: 12%
Sample 1, 300 nM Compound A1, 0 nM Compound B1
  Percentage of the AnnexinV^+ cells: 16%
Sample 2, 30 nM Compound A1, 0 nM Compound B1
  Percentage of the AnnexinV^+ cells: 9%
Sample 2, 100 nM Compound A1, 0 nM Compound B1
  Percentage of the AnnexinV^+ cells: 12%
Sample 2, 300 nM Compound A1, 0 nM Compound B1
  Percentage of the AnnexinV^+ cells: 20%
Sample 3, 30 nM Compound A1, 0 nM Compound B1
  Percentage of the AnnexinV^+ cells: 13%
Sample 3, 100 nM Compound A1, 0 nM Compound B1
  Percentage of the AnnexinV^+ cells: 15%
Sample 3, 300 nM Compound A1, 0 nM Compound B1
  Percentage of the AnnexinV^+ cells: 18%

## CC1(C)CCC(CN2CCN(c3ccc(C(=O)NS(=O)(=O)c4ccc(NCC5CCOCC5)c([N+](=O)[O-])c4)c(Oc4cnc5[nH]ccc5c4)c3)CC2)=C(c2ccc(Cl)cc2)C1 [Compound B1, (4-(4-{[2-(4-chlorophenyl)-4,4-dimethylcyclohex-1-en-1-yl]methyl}piperazin-1-yl)-N-({3-nitro-4-[(tetrahydro-2H-pyran-4-yl-methyl)amino]phenyl}sulfonyl)-2-(1H-pyrrolo[2,3-b]pyridin-5-yl-oxy)benzamide)]
Sample 1, 0 nM Compound A1, 0.8 nM Compound B1
  Percentage of the AnnexinV^+ cells: 13%
Sample 1, 0 nM Compound A1, 1.6 nM Compound B1
  Percentage of the AnnexinV^+ cells: 15%
Sample 1, 0 nM Compound A1, 3.1 nM Compound B1
  Percentage of the AnnexinV^+ cells: 15%
Sample 1, 0 nM Compound A1, 6.3 nM Compound B1
  Percentage of the AnnexinV^+ cells: 16%
Sample 1, 0 nM Compound A1, 12.5 nM Compound B1
  Percentage of the AnnexinV^+ cells: 19%
Sample 1, 0 nM Compound A1, 25 nM Compound B1
  Percentage of the AnnexinV^+ cells: 24%
Sample 1, 0 nM Compound A1, 50 nM Compound B1
  Percentage of the AnnexinV^+ cells: 31%
Sample 1, 0 nM Compound A1, 100 nM Compound B1
  Percentage of the AnnexinV^+ cells: 36%
Sample 1, 0 nM Compound A1, 200 nM Compound B1
  Percentage of the AnnexinV^+ cells: 46%
Sample 2, 0 nM Compound A1, 0.8 nM Compound B1
  Percentage of the AnnexinV^+ cells: 10%
Sample 2, 0 nM Compound A1, 1.6 nM Compound B1
  Percentage of the AnnexinV^+ cells: 18%
Sample 2, 0 nM Compound A1, 3.1 nM Compound B1
  Percentage of the AnnexinV^+ cells: 35%
Sample 2, 0 nM Compound A1, 6.3 nM Compound B1
  Percentage of the AnnexinV^+ cells: 55%
Sample 2, 0 nM Compound A1, 12.5 nM Compound B1
  Percentage of the AnnexinV^+ cells: 76%
Sample 2, 0 nM Compound A1, 25 nM Compound B1
  Percentage of the AnnexinV^+ cells: 89%
Sample 2, 0 nM Compound A1, 50 nM Compound B1
  Percentage of the AnnexinV^+ cells: 93%
Sample 2, 0 nM Compound A1, 100 nM Compound B1
  Percentage of the AnnexinV^+ cells: 95%
Sample 2, 0 nM Compound A1, 200 nM Compound B1
  Percentage of the AnnexinV^+ cells: 97%
Sample 3, 0 nM Compound A1, 0.8 nM Compound B1
  Percentage of the AnnexinV^+ cells: 16%
Sample 3, 0 nM Compound A1, 1.6 nM Compound B1
  Percentage of the AnnexinV^+ cells: 21%
Sample 3, 0 nM Compound A1, 3.1 nM Compound B1
  Percentage of the AnnexinV^+ cells: 33%
Sample 3, 0 nM Compound A1, 6.3 nM Compound B1
  Percentage of the AnnexinV^+ cells: 50%
Sample 3, 0 nM Compound A1, 12.5 nM Compound B1
  Percentage of the AnnexinV^+ cells: 69%
Sample 3, 0 nM Compound A1, 25 nM Compound B1
  Percentage of the AnnexinV^+ cells: 89%
Sample 3, 0 nM Compound A1, 50 nM Compound B1
  Percentage of the AnnexinV^+ cells: 97%
Sample 3, 0 nM Compound A1, 100 nM Compound B1
  Percentage of the AnnexinV^+ cells: 99%
Sample 3, 0 nM Compound A1, 200 nM Compound B1
  Percentage of the AnnexinV^+ cells: 100%
